The supplement of paper PMC4862054

Assays:
Settings in all cases: incubation time: 72 h
[1] = system: CAL-51; test: normalised viability (% of control), CellTiter-Blue; higher = more viable cells (about 100 = DMSO control)
Experimental: (§1)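 DSRT, CellTiter-Blue viability, 72 h incubation. Signal is normalised to DMSO and benzethonium chloride controls. Value is the normalised response at dose 7.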

[2] = system: MDA-MB-453; test: as above
Experimental: as §1

[3] = system: BT-474; test: normalised response (% of control), CellTox Green; higher = less cell death (100 = DMSO, 0 = benzethonium chloride kill control)
Procedure, shortened: (§2)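 Two readouts were taken after 72 h: CellTox Green fluorescence (485/520 nm) first, then CellTiter-Glo luminescence after 10 min at room temperature. Breast cancer cell lines had been seeded as 20 µl suspension into 384-well plates holding compound at 5 concentrations in 10-fold steps across a compound-specific 10,000-fold range. Each value is a normalised signal at a single concentration, with plates scaled to 0.1 % DMSO (100) and a positive kill control (0).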

[4] = system: CAL-148; test: as above
Procedure, shortened: as §2

[5] = system: HCC1143; test: as above
Procedure, shortened: as §2

[6] = system: MFM-223; test: as above
Procedure, shortened: as §2

[7] = system: HDQ-P1; test: as above
Procedure, shortened: as §2

[8] = system: HCC1937; test: as above
Procedure, shortened: as §2

[9] = system: DU-4475; test: as above
Procedure, shortened: as §2

[10] = system: HCC1599; test: as above
Procedure, shortened: as §2

[11] = system: BT-549; test: as above
Procedure, shortened: as §2

[12] = system: CAL-51; test: normalised response (% of control), CellTiter-Glo; higher = more viable cells (100 = DMSO, 0 = benzethonium chloride kill control)
Procedure, shortened: as §2

[13] = system: CAL-120; test: as above
Procedure, shortened: as §2

[14] = system: BT-474; test: as above
Procedure, shortened: as §2

[15] = system: CAL-148; test: as above
Procedure, shortened: as §2

[16] = system: MDA-MB-231; test: as above
Procedure, shortened: as §2

[17] = system: CAL-85-1; test: as above
Procedure, shortened: as §2

[18] = system: MDA-MB-468; test: as above
Procedure, shortened: as §2

[19] = system: HCC1143; test: as above
Procedure, shortened: as §2

[20] = system: MFM-223; test: as above
Procedure, shortened: as §2

[21] = system: HDQ-P1; test: as above
Procedure, shortened: as §2

[22] = system: MDA-MB-436; test: as above
Procedure, shortened: as §2

[23] = system: HCC1937; test: as above
Procedure, shortened: as §2

[24] = system: SK-BR-3; test: as above
Procedure, shortened: as §2

[25] = system: HCC1599; test: as above
Procedure, shortened: as §2

[26] = system: BT-549; test: as above
Procedure, shortened: as §2

[27] = system: MDA-MB-453; test: as above
Procedure, shortened: as §2

[28] = system: Hs578T; test: as above
Procedure, shortened: as §2

[29] = system: MCF-10A; test: as above
Procedure, shortened: as §2

CC(C)C(=O)Nc1ccc([N+](=O)[O-])c(C(F)(F)F)c1 [Flutamide] (1000 nM)
normalised viability [1]: 115%
normalised viability [2]: 90.1%
normalised response [3]: 99.5%
normalised response [4]: 104%
normalised response [5]: 99.2%
normalised response [6]: 99%
normalised response [7]: 114%
normalised response [8]: 118%
normalised response [9]: 99.8%
normalised response [10]: 94.6%
normalised response [11]: 115%
normalised response [12]: 93.2%
normalised response [13]: 94.7%
normalised response [14]: 103%
normalised response [15]: 99.9%
normalised response [16]: 101%
normalised response [17]: 93.5%
normalised response [18]: 96.9%
normalised response [19]: 100%
normalised response [20]: 99.8%
normalised response [21]: 101%
normalised response [22]: 98.1%
normalised response [23]: 96.2%
normalised response [24]: 93.9%
normalised response [25]: 111%
normalised response [26]: 103%
normalised response [27]: 99.7%
normalised response [28]: 100%
normalised response [29]: 99.3%

O=C(c1cc(Cc2n[nH]c(=O)c3ccccc23)ccc1F)N1CCN(C(=O)C2CC2)CC1 [Olaparib] (1000 nM)
normalised viability [1]: 88.6%
normalised viability [2]: 79.4%
normalised response [3]: 92.9%
normalised response [4]: 92.9%
normalised response [5]: 93.3%
normalised response [7]: 71.5%
normalised response [8]: 109%
normalised response [9]: 99.7%
normalised response [10]: 94.9%
normalised response [11]: 124%
normalised response [12]: 98.5%
normalised response [13]: 92.3%
normalised response [14]: 87.6%
normalised response [15]: 83.1%
normalised response [16]: 88.7%
normalised response [17]: 101%
normalised response [18]: 91.8%
normalised response [19]: 94.8%
normalised response [20]: 101%
normalised response [21]: 96.6%
normalised response [22]: 75.2%
normalised response [23]: 95.6%
normalised response [24]: 92%
normalised response [25]: 101%
normalised response [26]: 94.9%
normalised response [27]: 132%
normalised response [28]: 97.5%
normalised response [29]: 92.3%

C[C@@H](C(=O)O)c1ccc(-c2ccccc2)c(F)c1 [Tarenflurbil] (1000 nM)
normalised viability [1]: 109%
normalised viability [2]: 87.7%
normalised response [3]: 97.1%
normalised response [5]: 105%
normalised response [6]: 87.5%
normalised response [7]: 65.7%
normalised response [8]: 115%
normalised response [9]: 96.6%
normalised response [10]: 96.3%
normalised response [11]: 108%
normalised response [12]: 119%
normalised response [13]: 96.5%
normalised response [14]: 92%
normalised response [15]: 91.7%
normalised response [16]: 95%
normalised response [17]: 98.8%
normalised response [18]: 94.8%
normalised response [19]: 92.5%
normalised response [20]: 95%
normalised response [21]: 94.7%
normalised response [22]: 100%
normalised response [23]: 94.7%
normalised response [24]: 87.8%
normalised response [25]: 106%
normalised response [26]: 99.3%
normalised response [27]: 96%
normalised response [28]: 101%
normalised response [29]: 90.1%

C[C@@H]1C[C@H]2[C@@H]3CCC4=CC(=O)C=C[C@]4(C)[C@@]3(F)[C@@H](O)C[C@]2(C)[C@@]1(O)C(=O)CO [Dexamethasone] (1000 nM)
normalised viability [1]: 101%
normalised viability [2]: 69.8%
normalised response [3]: 99.3%
normalised response [5]: 107%
normalised response [6]: 54.1%
normalised response [7]: 56.1%
normalised response [8]: 106%
normalised response [9]: 96%
normalised response [10]: 87%
normalised response [11]: 111%
normalised response [12]: 124%
normalised response [13]: 68.7%
normalised response [14]: 139%
normalised response [15]: 92.5%
normalised response [16]: 159%
normalised response [17]: 112%
normalised response [18]: 102%
normalised response [19]: 97.6%
normalised response [20]: 93.5%
normalised response [21]: 83.6%
normalised response [22]: 104%
normalised response [23]: 98.1%
normalised response [24]: 83.5%
normalised response [25]: 97.8%
normalised response [26]: 102%
normalised response [27]: 84.6%
normalised response [28]: 108%
normalised response [29]: 80.6%

COc1cc2c(N3CCN(C(=O)Nc4ccc(OC(C)C)cc4)CC3)ncnc2cc1OCCCN1CCCCC1 [Tandutinib] (100 nM)
normalised viability [1]: 107%
normalised viability [2]: 97.6%
normalised response [3]: 96.3%
normalised response [4]: 100%
normalised response [5]: 93.2%
normalised response [6]: 100%
normalised response [8]: 112%
normalised response [9]: 98%
normalised response [10]: 91.2%
normalised response [11]: 129%
normalised response [12]: 96.2%
normalised response [13]: 101%
normalised response [14]: 105%
normalised response [15]: 101%
normalised response [16]: 106%
normalised response [17]: 109%
normalised response [18]: 103%
normalised response [19]: 103%
normalised response [20]: 101%
normalised response [21]: 102%
normalised response [22]: 114%
normalised response [23]: 100%
normalised response [24]: 98.4%
normalised response [25]: 121%
normalised response [26]: 103%
normalised response [27]: 97.4%
normalised response [28]: 96.3%
normalised response [29]: 96.6%

NC(=O)c1cccc2cn(-c3ccc([C@@H]4CCCNC4)cc3)nc12 [MK-4827] (1000 nM)
normalised viability [1]: 90.8%
normalised viability [2]: 93.3%
normalised response [3]: 101%
normalised response [4]: 80.5%
normalised response [5]: 81.1%
normalised response [6]: 101%
normalised response [8]: 104%
normalised response [9]: 97.8%
normalised response [10]: 99.2%
normalised response [11]: 134%
normalised response [12]: 95.2%
normalised response [13]: 101%
normalised response [14]: 109%
normalised response [15]: 97.6%
normalised response [16]: 109%
normalised response [17]: 105%
normalised response [18]: 101%
normalised response [19]: 104%
normalised response [20]: 106%
normalised response [21]: 102%
normalised response [22]: 79.3%
normalised response [23]: 105%
normalised response [24]: 98.8%
normalised response [25]: 107%
normalised response [26]: 97.4%
normalised response [27]: 140%
normalised response [28]: 102%
normalised response [29]: 106%
